In this assay the test system is Müller glial cells. Briefly: Osmotic Müller cell swelling in acutely isolated retinal slices under hypotonic challenge. The format is cell-based, mouse. The settings on record: for effect on osmotic swelling of Müller cells (FIG. 3C): hypotonic challenge. On the procedure: Müller cell swelling: To determine volume changes of Müller glial cells evoked by hypotonic stress, the cross-sectional area of glial cell somata in the inner nuclear layer of retinal slices was measured. Acutely isolated slices (thickness, 1 mm) were prepared from untreated control eyes and from the detached retinal area of operated eyes from C57BL/6 and Dp71-null mice, placed in a perfusion chamber and loaded with the vital dye Mitotracker Orange (10 μM). This dye is selectively taken up by Müller glial cells whereas retinal neurons, astrocytes, and microglial cells remain unstained. The stock solution of the dye was prepared in dimethylsulfoxide and resolved in saline. The slices were examined with a confocal laser scanning microscope LSM 510 Meta (Zeiss, Oberkochen, Germany). Mitotracker Orange was excited at 543 nm, and emission was recorded with a 560 nm long-pass filter. To assure that the maximum soma areas were precisely recorded, the focal plane was continuously adjusted in the course of the experiments.
A gravity-fed system with multiple reservoirs was used to perfuse the recording chamber continuously with extracellular solution; the hypotonic solution and test substances were added by rapid change of the perfusate. The extracellular solution consisted of (in mM) […], 3 KCl, 2 CaCl2, 1 MgCl2, 10 HEPES, and 11 glucose, adjusted to pH 7.4 with Tris. The hypotonic solution (60% of control osmolarity) was made up by adding distilled water. BaCl2 (1 mM) was preincubated for 10 minutes in extracellular solution before application within hypotonic solution. Blocking substances were preincubated for 15 to 45 minutes, and adenosine was administered simultaneously with the hypotonic solution. Swelling experiments were performed at room temperature.
To determine the extent of glial soma swelling, the cross-sectional area of Mitotracker Orange-stained cell bodies in the inner nuclear layer of retinal slices was measured off-line using the image analysis software of the LSM. Bar diagrams display the mean (+SEM) cross-sectional area of cell somata that was measured after 4-minute perfusion with hypotonic solution, in percent of the soma area measured before osmotic challenge (100%).

Where [1] appears, read: control retina from Dp71-null mice.

For the molecule `O=C(CBr)c1ccc(Br)cc1` [4-bromophenacyl bromide], the “cross-sectional area of Müller cell somata after 4-minute perfusion with hypotonic solution, in percent of the soma area before osmotic challenge” value (Müller cells from Dp71-null mice, 300 μM, preincubated, hypotonic solution 60% of control osmolarity) stood at 103.3±2.1%. Also, under setting [1], the “effect on osmotic swelling of Müller cells (FIG. 3C)” value (“effect on osmotic swelling” below) is on record as “blocked the swelling”.
For the molecule `[Ba+2].[Cl-].[Cl-]` [Ba^2+, barium chloride], the “effect on Müller cell soma area under hypotonic challenge (FIG. 3B)” value runs as follows: under setting [1], “no effect”; (control retina from wt mice) “induced a swelling”. The “cross-sectional area of Müller cell somata after 4-minute perfusion with hypotonic solution, in percent of the soma area before osmotic challenge” value runs as follows: (slices from control retinas of C57BL/6 (wt) mice, BaCl2 1 mM, 102.0±1.0% without Ba2+) 111.5±1.6%; (untreated Dp71-null mice, BaCl2 1 mM, 118.0±2.3% without Ba2+) 122.3+3.6%.
For the molecule `Nc1ncnc2c1ncn2[C@@H]1O[C@H](CO)[C@@H](O)[C@H]1O` [adenosine], the “effect on osmotic swelling” value under setting [1] is recorded as “blocked the swelling”. The “cross-sectional area of Müller cell somata after 4-minute perfusion with hypotonic solution, in percent of the soma area before osmotic challenge” value (untreated retinas from Dp71-null mice, adenosine 10 μM applied with the hypotonic solution (60% of control osmolarity), 120.3±3.8% without adenosine) is reported as 103.2±2.2%.
Consider `COc1ccc2c(c1)c(CC(=O)O)c(C)n2C(=O)c1ccc(Cl)cc1` [indomethacin], for which, for the setting “Müller cells from Dp71-null mice, 10 μM, preincubated, hypotonic solution 60% of control osmolarity”, the “cross-sectional area of Müller cell somata after 4-minute perfusion with hypotonic solution, in percent of the soma area before osmotic challenge” value is listed as 104.4±1.6%. In addition, the “effect on osmotic swelling” value under setting [1] was “blocked the swelling”.

These data come from US20120142609A1, “NON HUMAN ANIMAL MODELS FOR INCREASED RETINAL VASCULAR PERMEABILITY” (priority 2009, published 2012).
